Consider six compounds from patent publication US20110184034A1, “Severe sepsis preventive therapeutic agent” (priority 2002, published 2011).

For assay [1], the system named is TLR9 signal (CPG), mouse macrophage cell line RAW264.7. Nature of the assay: NO production by TLR9 selective agonist CpG oligoDNA (CPG) in RAW264.7. It counts as cell-based. Particulars: RAW264.7, CpG oligoDNA 75 nmol/L + interferon-γ 0.1 ng/mL, nitrite ion. How it is done: (§1) Using mouse macrophage cell line RAW264.7, the suppressive effect of the test substance on cytokine production by a TLR selective agonist was investigated. On the previous day of the experiment, the cells were suspended in RPMI-1640 medium supplemented with 10% inactivated fetal calf serum to 5×10^5 cells/mL and inoculated to a 96-well microplate at 0.2 mL/well. After incubation at 37° C. under an atmosphere of 5% CO2/95% air overnight, the medium was changed to an RPMI-1640 medium supplemented with 1% inactivated fetal calf serum, and a test substance, various TLR agonists and interferon-γ (final concentration 0.1 ng/mL) were added. After further incubation overnight, the concentration of nitrite ion (stable metabolite of NO) in the culture supernatant was quantified by fluorescence method using 2,3-dimaminonaphthalene. As the TLR4 selective agonist, LPS was added, as the TLR2 selective agonist, peptide glycan (PGN) was added, and as the TLR9 selective agonist, CpG oligoDNA (CPG) was added, to the final concentrations of 5 ng/mL, 1 μg/mL and 75 nmol/L, respectively. In addition, the test substance was dissolved at 10 mM in N,N-dimethylformamide, diluted with an RPMI-1640 medium supplemented with 1% inactivated fetal calf serum to the concentration of 0.1 mM, then diluted with a medium to a 10-fold concentration of the final concentration and 1/10 was added.

In assay [2] the test system is TLR2 signal (PGN), mouse macrophage cell line RAW264.7. Kind of assay: NO production by TLR2 selective agonist peptide glycan (PGN) in RAW264.7. The format is cell-based. The following applies: RAW264.7, PGN 1 μg/mL + interferon-γ 0.1 ng/mL, nitrite ion. How it is done:
as §1

Assay [3] deals with TLR4 signal (LPS), mouse macrophage cell line RAW264.7. Kind of assay: NO production by TLR4 selective agonist LPS in RAW264.7. Particulars: RAW264.7, LPS 5 ng/mL + interferon-γ 0.1 ng/mL, nitrite ion. It counts as cell-based. The protocol:
as §1

In assay [4] the test system is LPS-inoculated female BALB/c mice. Kind of assay: Effect by administration after LPS inoculation in endotoxin shock model (2), survival. The format is in vivo, mouse. Particulars: LPS 4 mg/kg i.p.; test substance 10 mg/kg i.v. (soybean oil emulsion) at 4 hr after LPS inoculation; observed 5 days. The protocol:
To investigate the treatment effect during the process toward an advanced degree after the onset of sepsis, the effect of a test substance (Reference Example B66) by administration after LPS inoculation in an endotoxin shock model was investigated. […] The test substance was prepared into an emulsified liquid of a soybean oil, and intravenously administered (10 mg/kg) immediately after, 1, 2, 4 and 6 hr after LPS inoculation. An emulsified liquid without a drug was intravenously administered to the control group immediately after LPS inoculation.

In assay [5] the test system is IL-6 production, mouse macrophage cell line RAW264.7. Nature of the assay: IL-6 production by β-amyloid peptide (1-40) in RAW264.7. It counts as cell-based. Particulars: β-amyloid peptide (1-40) 10 μM + interferon-γ 10 U/mL. How it is done: (§2) On the previous day of the experiment, the cells were suspended in RPMI-1640 medium supplemented with 10% inactivated fetal calf serum to 5×10^5 cells/mL and inoculated to a 96-well microplate at 0.2 mL/well. After incubation at 37° C. under 5% CO2/95% air overnight, the medium was changed to an RPMI-1640 medium supplemented with 1% inactivated fetal calf serum, a test substance and β-amyloid peptide (1-40) (final concentration 10 μM) and interferon-γ (final concentration 10 U/mL) were added. After further incubation overnight, the concentrations of tumor necrosis factor-α (TNF-α) and IL-6 in culture supernatants were measured using an enzyme immunoassay kit manufactured by Amersham. The test substance was dissolved at 10 mM in N,N-dimethylformamide and diluted with an RPMI-1640 medium supplemented with 1%, inactivated fetal calf serum to the concentration of 0.1 mM, then diluted with a medium to a 10-fold concentration of the final concentration and 1/10 was added.

The test system of assay [6] is TNF-α production, mouse macrophage cell line RAW264.7. Kind of assay: TNF-α production by β-amyloid peptide (1-40) in RAW264.7. The following applies: β-amyloid peptide (1-40) 10 μM + interferon-γ 10 U/mL. It counts as cell-based. The protocol:
as §2

Assay [7] has as its system female CBA/J mice, DSS induced colitis. Kind of assay: Dextran sulfate induced colitis model. The format is in vivo, mouse. Particulars: for BW (%) / Hb / Ht (%) / RBC / WBC: means ± SE of six mice; for GBS (%) (grossly bloody stool): six mice. The protocol:
A 5% dextran sulfate (DSS) solution was placed in a water feeder to allow free drinking by female CBA/J mice (8 w) for 5 days, the solution was changed to 1% DSS solution on day 6 to allow free drinking for 7 days. The drug (Reference Example B3) (10-30 mg/kg) was suspended in 0.5% methyl cellulose (MC), and orally administered from day 6 under 1% DSS solution drinking once a day for 7 days. After 12 days of drinking DSS, the body weight was measured and stool was observed (grossly bloody stool: GBS). Blood was drawn and white blood count (WBC), red blood count (RBC), hemoglobin concentration (Hb) and hematocrit value (Ht) were measured by using an automatic cell counter (Sysmex).

In assay [8] the test system is male Sprague-Dawley rats, balloon-injured carotid artery. Kind of assay: Rat balloon injury model, vascular thickening (DNA content of carotid artery). Particulars: 30 and 100 mg/kg/d i.p. once a day, 2 weeks. It counts as in vivo. The protocol:
Using male Sprague-Dawley rats, the neck was incised under sodium pentobarbital (45 mg/kg ip) anesthesia to expose left carotid artery. A Forgaty catheter (2F, manufactured by Baxtar) was inserted from the […] to a bifurcation area of internal and external carotid arteries of left carotid artery, a balloon was blown and abraded to the aortic arch bifurcation. This operation was repeated three times to injure the common carotid artery. After the injury, the catheter was extracted, the incision was sutured, and the rats were individually bred in ordinary breeding cages. After 2 weeks from the injury, the rats were exsanguinated under anesthesia, and the left (injured) side and the right (non-injured) side of carotid arteries were removed by 5 mm on the heart side, at 5 mm from the internal and external carotid artery bifurcation area, and the DNA content was measured. The drug (Reference Example B3) was suspended in 0.5% methyl cellulose, and intraperitoneally administered once a day from the day of balloon injury operation to carotid artery enucleation. When balloon injury operation was performed, the drug was administered 30 min before anesthesia and the balloon injury was produced.

Assay [9] concerns male DBA/1 mice, type II collagen induced arthritis. Kind of assay: Collagen induced arthritis model. The format is in vivo, mouse. Particulars: for Arthritis incidence (%) / Arthritis index: 30 mg/kg orally once a day from collagen immunization. The protocol: Bovine-derived type II collagen was dissolved in 0.050 acetic acid solution, and an equivalent amount of Freund's complete adjuvant was mixed therewith to give an emulsion. The collagen emulsion was administered intracutaneously into the tail head of male DBA/1 mice (6W) (n=10-12) at 100 μg/0.1 mL to induce arthritis. The levels of flare and edema of four limbs were visually observed during the progress thereof. The drug (Reference Example B3) (30 mg/kg) was suspended in 0.5% MC, and orally administered once a day from collagen immunization for 8 weeks (except Sundays). The onset of arthritis was evaluated every week, and the rate of onset was expressed by (number of limbs having arthritis/number of limbs of mice in one group×100). As indices of arthritis, for each limb, no change was 0, swelling of one finger or plural fingers was 1, flare and swelling seen in the entirety was 2, strong swelling seen in the entirety was 3, crampus tonicus of joint was 4, and the total of four limbs was 16, and arthritis was expressed in (total of all scores of onset mice/number of limbs of mice in one group), wherein 4 was the highest value for one limb.

The test system of assay [10] is E. coli O111 inoculated galactosamine-loaded female BALB/c mice. Kind of assay: Galactosamine loaded mouse Escherichia coli inoculated lethal model, survival. It counts as in vivo. The following applies: E. coli O111 5.9×10^5 CFU i.p. with galactosamine 1 g/kg; test substance 30 mg/kg orally at 1 hr after bacterial inoculation; observed 6 days. The protocol:
Since sepsis is a systemic inflammatory response caused by infection, the effect of a test substance (Reference Example B26) by administration after bacterial inoculation in infection model was studied. […] The test substance was suspended in 0.5% aqueous methyl cellulose solution, and orally administered (30 mg/kg) immediately, 30 min and 1, 2 and 4 hr after the bacterial inoculation. The solvent was orally administered to the control group immediately after the bacterial inoculation.
In other words, the test substance can be expected to show effect of improving the state of severe sepsis complicated with organ dysfunction.

For assay [11], the system named is LPS-inoculated female BALB/c mice. Kind of assay: Effect by administration after LPS inoculation in endotoxin shock model (1), survival. The format is in vivo, mouse. Particulars: LPS 10 mg/kg i.p.; test substance 30 mg/kg i.p. at 1 hr after LPS inoculation; observed one week. How it is done: To investigate the treatment effect during the process toward an advanced degree after the onset of sepsis, the effect of a test substance (Reference Example B1) by administration after LPS inoculation in an endotoxin shock model was investigated. […] The test substance was suspended in 0.5% aqueous methyl cellulose solution, and intraperitoneally inoculated (30 mg/kg) at 1 hr before, immediately after, 30 min after and 1 hr after LPS inoculation. The solvent was given to the control group at 1 hr before LPS inoculation.

The mark [12] stands for this setting: 10 mg/kg orally once a day for 7 days.
[13] abbreviates: 30 mg/kg orally once a day for 7 days.

As for `CCOC(=O)C1=CCOCC1S(=O)(=O)Nc1ccc(F)cc1Cl` (stereo not drawn) [Reference Example D7, ethyl 3-[(2-chloro-4-fluorophenyl)sulfamoyl]-3,6-dihydro-2H-pyran-4-carboxylate], the IC50 (as a rule, the concentration that gives 50% inhibition) in assay [1] was > 1 µM; in assay [2], 0.53 µM; in assay [3] it was 0.018 µM.
Taken in the same sequence, the figures for `CCOC(=O)C1=CCCCC1S(=O)(=O)Cc1ccc(F)cc1Cl` (stereo not drawn) [Reference Example D4, ethyl 6-[(2-chloro-4-fluorobenzyl)sulfonyl]-1-cyclohexene-1-carboxylate] were > 1 µM, > 1 µM and 0.011 µM.
As to `CCOC(=O)C1=CCCC[C@H]1S(=O)(=O)Nc1ccc(F)cc1Cl` [Reference Example B66, ethyl (6R)-6-[(2-chloro-4-fluoroanilino)sulfonyl]-1-cyclohexene-1-carboxylate], the 50% inhibitory concentration (IC50) in assay [1] is > 1 µM; in assay [2], > 1 µM; in [3], 0.01 µM. Moreover, the “life-saving effect (survival)” value in [4] is recorded as “clear life-saving effect”.
`CCOC(=O)C1=CCCCC1S(=O)(=O)Nc1ccc(F)cc1F` (stereo not drawn) [Reference Example B3, ethyl 6-[N-(2,4-difluorophenyl)sulfamoyl]-1-cyclohexene-1-carboxylate]: the “Suppressive rate (%) IL-6” value in assay [5] (1 μM) came out at 100%. The “Suppressive rate (%) IL-6” value in [5] (10 μM) is 100%. The “Suppressive rate (%) TNF-α” value in assay [6] (1 μM) is 87%. In addition, in [6] (10 μM), the “Suppressive rate (%) TNF-α” value stood at 97%. Moreover, in assay [7] (setting [12]), the “BW (%)” value is recorded as 102.0 ± 7.1%, the Hb is 13.2 ± 0.8 g/dL, the “Ht (%)” value is 35.4 ± 2.7% and the RBC was 607.5 ± 45.3 ×10^4/μL. Also, in assay [7] (setting [12]), the WBC is reported as 41.0 ± 4.1^+ ×10^2/μL and the “GBS (%) (grossly bloody stool)” value is listed as 83%. Moreover, in assay [7] (setting [13]), the “BW (%)” value worked out at 102.8 ± 7.9%, the Hb turned out to be 12.9 ± 0.5 g/dL, the “Ht (%)” value amounted to 35.1 ± 2.7% and the RBC was 616.7 ± 51.1 ×10^4/μL. For the same compound, in assay [7] (setting [13]), the WBC is recorded as 53.5 ± 7.8^+ ×10^2/μL and the “GBS (%) (grossly bloody stool)” value was 67%. Besides, the “changes in WBC, RBC, Hb and Ht induced by DSS” value in assay [7] (10-30 mg/kg orally) is “remarkably suppressed changes in WBC, RBC, Hb and Ht induced by DSS”. For the same compound, in [8], the “vascular thickening due to balloon injury (DNA content)” value is reported as “suppressed vascular thickening due to balloon injury in a dose-dependent manner”. Besides, the “incidence and index of arthritis” value in [9] (30 mg/kg orally) was “decreased the incidence and index of arthritis”. Further, in [9] (6W), the “Arthritis incidence (%)” value stood at 37.5% and the Arthritis index was found to be 0.65. In [9] (7W), the “Arthritis incidence (%)” value is 40.0% and the Arthritis index was 0.80. In addition, in [9] (8W), the “Arthritis incidence (%)” value is 60.0% and the Arthritis index is recorded as 1.15.
Take `CCOC(=O)C1=CCCCC1S(=O)(=O)Nc1ccc(F)cc1Cl` (stereo not drawn) [Reference Example B26, ethyl 6-[N-(2-chloro-4-fluorophenyl)-sulfamoyl]-1-cyclohexene-1-carboxylate]: the “Suppressive rate (%) IL-6” value in [5] (1 μM) turned out to be 93%; in assay [5] (10 μM) it was 96%. The “Suppressive rate (%) TNF-α” value is 88% in assay [6] (1 μM) and 100% in assay [6] (10 μM). For the same compound, the “life-saving effect (survival)” value in [10] is on record as “clear life-saving effect”.
For the compound `CCOC(=O)C1=CCCCC1S(=O)(=O)Nc1ccc(Cl)cc1F` (stereo not drawn) [Reference Example B1, ethyl 6-[N-(4-chloro-2-fluorophenyl)-sulfamoyl]-1-cyclohexene-1-carboxylate], the “Suppressive rate (%) IL-6” value in assay [5] (1 μM) is 80%; in [5] (10 μM), 100%. Further, the “Suppressive rate (%) TNF-α” value in [6] (1 μM) turned out to be 77%; in [6] (10 μM), 99%. For the same compound, the “life-saving effect (survival)” value in assay [11] is “clear life-saving effect”.
